Laboratory results as given in US6489469B1, “Method for storing or transporting erythritol solution” (Nikken Chemicals Co., Ltd., priority 1999, dated 2002).

How the values were obtained:
[1] = system: Aspergillus niger IFO 6342; assay: Viable Count of Aspergillus niger IFO 6342 in Erythritol Solution; format: cell-based
Description: Erythritol solutions of respective concentrations in the range of from 30 to 60% were prepared. To these were inoculated Staphylococcus aureus IFO 13276, Bacillus subtilis IFO 3134, and Escherichia coli IFO 3972 as bacteria, Candida albicans IFO 1549 and Saccharomyces cerevisiae ATCC 9763 as yeasts, Aspergillus niger IFO 6342, Aspergillus flavus IFO 6343, and Penicillium funiculosum IFO 6345 as fungi, respectively, in a population (concentration) of 10,000 cells/mL or more. After the inoculation, the solutions were stored at 30, 37, 45, 50, or 60° C., respectively, for 56 days and the number of viable cell was determined daily. The determination of the number of viable cell was performed by a method of coating 0.1 mL of appropriately diluted sample cultivation on an agar plate and cultivating and counting the number of viable cell (the number of colony) that grew after the cultivation.

[2] = Long-term Stability of Erythritol Solution by High Temperature Storage; format: physicochemical; set-up: change in the degree of coloring / Degree of Coloring: scale not given here
Description: solutions having erythritol concentrations of 50%, 55%, 58% and 62%, respectively, were prepared and stored at 55° C., 60° C., 65° C. and 75° C. respectively, for 2 months and degree of coloring, pH, and purity were measured and the degree of deterioration was studied.

[3] = 75° C., short period of 10 days or less
[4] = Storage Temperature: 55° C., Erythritol Concentration: 50%, 0 days
[5] = Storage Temperature: 55° C., Erythritol Concentration: 50%, 10 days
[6] = Storage Temperature: 55° C., Erythritol Concentration: 50%, 30 days
[7] = Storage Temperature: 55° C., Erythritol Concentration: 50%, 60 days
[8] = Storage Temperature: 60° C., Erythritol Concentration: 55%, 0 days
[9] = Storage Temperature: 60° C., Erythritol Concentration: 55%, 10 days
[10] = Storage Temperature: 60° C., Erythritol Concentration: 55%, 30 days
[11] = Storage Temperature: 60° C., Erythritol Concentration: 55%, 60 days
[12] = Storage Temperature: 65° C., Erythritol Concentration: 58%, 0 days
[13] = Storage Temperature: 65° C., Erythritol Concentration: 58%, 10 days
[14] = Storage Temperature: 65° C., Erythritol Concentration: 58%, 30 days
[15] = Storage Temperature: 65° C., Erythritol Concentration: 58%, 60 days
[16] = Storage Temperature: 75° C., Erythritol Concentration: 62%, 0 days
[17] = Storage Temperature: 75° C., Erythritol Concentration: 62%, 10 days
[18] = Storage Temperature: 75° C., Erythritol Concentration: 62%, 30 days
[19] = Storage Temperature: 75° C., Erythritol Concentration: 62%, 60 days

OC[C@@H](O)[C@@H](O)CO [Erythritol Solution, erythritol]
The Number of Viable Cell ([1]; 45° C., 30% w/w, Day 0): ≥ 10000 cells/mL
The Number of Viable Cell ([1]; 45° C., 30% w/w, Day 3): ≥ 10000 cells/mL
The Number of Viable Cell ([1]; 45° C., 30% w/w, Day 7): ≥ 10000 cells/mL
The Number of Viable Cell ([1]; 45° C., 30% w/w, Day 14): ≥ 10000 cells/mL
The Number of Viable Cell ([1]; 45° C., 30% w/w, Day 28): ≥ 10000 cells/mL
The Number of Viable Cell ([1]; 45° C., 30% w/w, Day 56): 0 cells/mL
The Number of Viable Cell ([1]; 45° C., 40% w/w, Day 0): ≥ 10000 cells/mL
The Number of Viable Cell ([1]; 45° C., 40% w/w, Day 3): ≥ 10000 cells/mL
The Number of Viable Cell ([1]; 45° C., 40% w/w, Day 7): ≥ 10000 cells/mL
The Number of Viable Cell ([1]; 45° C., 40% w/w, Day 14): ≥ 10000 cells/mL
The Number of Viable Cell ([1]; 45° C., 40% w/w, Day 28): 0 cells/mL
The Number of Viable Cell ([1]; 45° C., 40% w/w, Day 56): 0 cells/mL
The Number of Viable Cell ([1]; 45° C., 50% w/w, Day 0): ≥ 10000 cells/mL
The Number of Viable Cell ([1]; 45° C., 50% w/w, Day 3): ≥ 10000 cells/mL
The Number of Viable Cell ([1]; 45° C., 50% w/w, Day 7): ≥ 10000 cells/mL
The Number of Viable Cell ([1]; 45° C., 50% w/w, Day 14): ≥ 10000 cells/mL
The Number of Viable Cell ([1]; 45° C., 50% w/w, Day 28): 0 cells/mL
The Number of Viable Cell ([1]; 45° C., 50% w/w, Day 56): 0 cells/mL
The Number of Viable Cell ([1]; 50° C., 30% w/w, Day 0): ≥ 10000 cells/mL
The Number of Viable Cell ([1]; 50° C., 30% w/w, Day 3): 0 cells/mL
The Number of Viable Cell ([1]; 50° C., 30% w/w, Day 7): 0 cells/mL
The Number of Viable Cell ([1]; 50° C., 30% w/w, Day 14): 0 cells/mL
The Number of Viable Cell ([1]; 50° C., 30% w/w, Day 28): 0 cells/mL
The Number of Viable Cell ([1]; 50° C., 30% w/w, Day 56): 0 cells/mL
The Number of Viable Cell ([1]; 50° C., 40% w/w, Day 0): ≥ 10000 cells/mL
The Number of Viable Cell ([1]; 50° C., 40% w/w, Day 3): ≥ 10000 cells/mL
The Number of Viable Cell ([1]; 50° C., 40% w/w, Day 7): 0 cells/mL
The Number of Viable Cell ([1]; 50° C., 40% w/w, Day 14): 0 cells/mL
The Number of Viable Cell ([1]; 50° C., 40% w/w, Day 28): 0 cells/mL
The Number of Viable Cell ([1]; 50° C., 40% w/w, Day 56): 0 cells/mL
The Number of Viable Cell ([1]; 50° C., 50% w/w, Day 0): ≥ 10000 cells/mL
The Number of Viable Cell ([1]; 50° C., 50% w/w, Day 3): ≥ 10000 cells/mL
The Number of Viable Cell ([1]; 50° C., 50% w/w, Day 7): 0 cells/mL
The Number of Viable Cell ([1]; 50° C., 50% w/w, Day 14): 0 cells/mL
The Number of Viable Cell ([1]; 50° C., 50% w/w, Day 28): 0 cells/mL
The Number of Viable Cell ([1]; 50° C., 50% w/w, Day 56): 0 cells/mL
The Number of Viable Cell ([1]; 60° C., 30% w/w, Day 0): ≥ 10000 cells/mL
The Number of Viable Cell ([1]; 60° C., 30% w/w, Day 3): 0 cells/mL
The Number of Viable Cell ([1]; 60° C., 30% w/w, Day 7): 0 cells/mL
The Number of Viable Cell ([1]; 60° C., 30% w/w, Day 14): 0 cells/mL
The Number of Viable Cell ([1]; 60° C., 30% w/w, Day 28): 0 cells/mL
The Number of Viable Cell ([1]; 60° C., 30% w/w, Day 56): 0 cells/mL
The Number of Viable Cell ([1]; 60° C., 40% w/w, Day 0): ≥ 10000 cells/mL
The Number of Viable Cell ([1]; 60° C., 40% w/w, Day 3): 0 cells/mL
The Number of Viable Cell ([1]; 60° C., 40% w/w, Day 7): 0 cells/mL
The Number of Viable Cell ([1]; 60° C., 40% w/w, Day 14): 0 cells/mL
The Number of Viable Cell ([1]; 60° C., 40% w/w, Day 28): 0 cells/mL
The Number of Viable Cell ([1]; 60° C., 40% w/w, Day 56): 0 cells/mL
The Number of Viable Cell ([1]; 60° C., 50% w/w, Day 0): ≥ 10000 cells/mL
The Number of Viable Cell ([1]; 60° C., 50% w/w, Day 3): 0 cells/mL
The Number of Viable Cell ([1]; 60° C., 50% w/w, Day 7): 0 cells/mL
The Number of Viable Cell ([1]; 60° C., 50% w/w, Day 14): 0 cells/mL
The Number of Viable Cell ([1]; 60° C., 50% w/w, Day 28): 0 cells/mL
The Number of Viable Cell ([1]; 60° C., 50% w/w, Day 56): 0 cells/mL
The Number of Viable Cell ([1]; 60° C., 60% w/w, Day 0): ≥ 10000 cells/mL
The Number of Viable Cell ([1]; 60° C., 60% w/w, Day 3): 0 cells/mL
The Number of Viable Cell ([1]; 60° C., 60% w/w, Day 7): 0 cells/mL
The Number of Viable Cell ([1]; 60° C., 60% w/w, Day 14): 0 cells/mL
The Number of Viable Cell ([1]; 60° C., 60% w/w, Day 28): 0 cells/mL
The Number of Viable Cell ([1]; 60° C., 60% w/w, Day 56): 0 cells/mL
growth of the microbes ([1]; temperature of 50° C. or more): prevented from growing
time after which microbes died ([1]; temperature of 50° C. or more): 7 days
change in pH [2, 3]: ≤ 1
change in purity [2, 3]: no change
change in the degree of coloring [2, 3]: ≤ 0.01
Degree of Coloring [2, 4]: 0.028
Purity (%) [2, 4]: 99.9%
pH [2, 4]: 5.7
Degree of Coloring [2, 5]: 0.028
Purity (%) [2, 5]: 99.9%
pH [2, 5]: 5.6
Degree of Coloring [2, 6]: 0.026
Purity (%) [2, 6]: 100.0%
pH [2, 6]: 5.4
Degree of Coloring [2, 7]: 0.027
Purity (%) [2, 7]: 100.0%
pH [2, 7]: 5.1
Degree of Coloring [2, 8]: 0.021
Purity (%) [2, 8]: 99.9%
pH [2, 8]: 5.7
Degree of Coloring [2, 9]: 0.021
Purity (%) [2, 9]: 99.9%
pH [2, 9]: 5.4
Degree of Coloring [2, 10]: 0.023
Purity (%) [2, 10]: 99.9%
pH [2, 10]: 5.5
Degree of Coloring [2, 11]: 0.028
Purity (%) [2, 11]: 99.9%
pH [2, 11]: 5.0
Degree of Coloring [2, 12]: 0.029
Purity (%) [2, 12]: 100.0%
pH [2, 12]: 5.7
Degree of Coloring [2, 13]: 0.030
Purity (%) [2, 13]: 99.9%
pH [2, 13]: 5.5
Degree of Coloring [2, 14]: 0.029
Purity (%) [2, 14]: 100.0%
pH [2, 14]: 5.2
Degree of Coloring [2, 15]: 0.036
Purity (%) [2, 15]: 99.9%
pH [2, 15]: 4.7
Degree of Coloring [2, 16]: 0.025
Purity (%) [2, 16]: 99.9%
pH [2, 16]: 5.7
Degree of Coloring [2, 17]: 0.027
Purity (%) [2, 17]: 99.9%
pH [2, 17]: 5.2
Degree of Coloring [2, 18]: 0.033
Purity (%) [2, 18]: 99.9%
pH [2, 18]: 4.8
Degree of Coloring [2, 19]: 0.065
Purity (%) [2, 19]: 99.9%
pH [2, 19]: 3.9
storage stability (purity, coloring) ([2]; storage at a temperature of 55 to 65° C.): without causing a decrease in purity or causing coloring
